{"source": "paper PMC3511009", "about": "“Modulating the activity of short arginine-tryptophan containing antibacterial peptides with N-terminal metallocenoyl groups” (Beilstein Journal of Organic Chemistry, 2012)", "key": {"[1]": {"tested_on": "Escherichia coli DSM 30083", "procedure": "(§1) The antibacterial activity of the peptides was first assessed by determining their minimum inhibitory concentration (MIC) value. This MIC value represents the lowest concentration of the antibacterial agent that is needed to hinder the growth of the bacteria. For this, six standard bacterial strains – among them three Gram-negative and three Gram-positive pathogens – were incubated with increasing concentrations of the antibacterial peptide (Table 2). In order to put the activities of these RW-based synAMPs and their organometallic conjugates into perspective, two reference peptides were included, i.e., membrane-targeting gramicidin S derivative GS(K2Y2) and cell wall precursor lipid II-targeting vancomycin.\n(§2) The minimal inhibitory concentrations (MIC) were tested against Escherichia coli DSM 30083, Acinetobacter baumannii DSM 30007, Pseudomonas aeruginosa DSM 50071, Bacillus subtilis DSM 402, Staphylococcus aureus DSM 20231 (type strain), and Staphylococcus aureus ATCC 43300 (MRSA) in a microtiter plate assay according to CLSI guidelines. E. coli, A. baumannii, S. aureus, and B. subtilis were grown in Mueller–Hinton (MH) broth, P. aeruginosa in cation adjusted Mueller–Hinton II. […] Serial dilution in culture media was carried out automatically with the Tecan Freedom Evo 75 liquid handling workstation (Tecan, Männedorf, Switzerland) from 512 to 0.5 µg/mL. Peptide dilutions were inoculated with 10^5 bacteria/mL taken from late exponential cultures grown in the same media in a total volume of 200 µL per well. Cells were incubated for 16 h at 37 °C. The lowest peptide concentration inhibiting visible bacterial growth was taken as MIC.\n(§3) Cells were grown in DMEM until late exponential phase before using them for inoculation. Peptide concentrations, inoculation and incubation were performed as described above."}, "[2]": {"tested_on": "Acinetobacter baumannii DSM 30007", "test": "microbe, parasite or virus in culture", "procedure": "as §1, §2, §3"}, "[3]": {"tested_on": "Bacillus subtilis DSM 402", "test": "microbe, parasite or virus in culture", "conditions": "for Minimum inhibitory concentration, B. subtilis: DSM 402, 16 h", "procedure": "as §1, §2, §3"}, "[4]": {"tested_on": "Staphylococcus aureus DSM 20231 (type strain)", "test": "microbe, parasite or virus in culture", "procedure": "as §1, §2, §3"}, "M. luteus": {"tested_on": "M. luteus", "test": "MIC in half-concentrated MH broth, polypropylene plates", "format": "cell-based", "conditions": "18 h", "procedure": "(§4) Determination of MIC values was performed in 96-well polypropylene microtiter plates (Life Technologies) in order to reduce the AMP binding. A series of 2-fold dilutions of the peptides was prepared directly in the plate in half-concentrated MH broth. The tested strains were grown to an optical density (600 nm) of 0.5 in half-concentrated MH broth and diluted 1:10^5 using the same medium. Then, 100 µL of this suspension was mixed with 100 µL of the peptide solution already prepared in the wells of the microtiter plate as mentioned earlier. […] The results given are mean values of three or more independent determinations."}, "S. aureus (133)": {"tested_on": "S. aureus (133)", "test": "MIC in half-concentrated MH broth, polypropylene plates", "format": "cell-based", "conditions": "133, 18 h", "procedure": "as §4"}, "[5]": {"tested_on": "human red blood cells (hRBCs)", "test": "Hemolytic activity", "format": "cell-based", "procedure": "(§5) Although an HC50 value was reported for (RW)3 [53], neither the D-amino acid peptide nor the organometallic derivatized peptides were studied with respect to their hemolytic capacity. Therefore, all peptides were tested in parallel to obtain HC50 values under identical conditions.\n(§6) After drawing whole blood into anticoagulant containing tubes (BD Vacutainer®, K2 EDTA 3.6 mg, Ref 368841, Lot 1248213), its fractionation was executed with one volume whole blood added to nine volumes sterile 0.9% NaCl and centrifugation (800g, 10 min, 4 °C). Subsequently, the lowest fraction containing all hRBCs was washed twice with nine volumes 1 × PBS (PAA), triturating carefully. The concentrated hRBCs were re-suspended with 1 × PBS to an erythrocyte concentration of 5% (v/v). Wells of a 96-well plate were filled with 100 µL of the appropriate peptide solutions: The peptides were dissolved in 1 × PBS and DMSO (5% for (RW)3 and 50% for RcCO-W(RW)2). These were mixed with 100 µL of the 5% hRBCs solution and incubated under agitation on a flat shaker (170 rpm, 30 min, 37 °C). […] The release of hemoglobin was monitored by measuring the absorbance of the supernatant at 550 nm using an automated 96-well plate reader. […] Toxicity on human cancer cell lines was determined according to previously described procedures."}, "[6]": {"tested_on": "human breast adenocarcinoma (MCF7)", "format": "cell-based", "procedure": "(§7) Finally, to determine whether the peptides are selective for bacterial cells, we tested the toxicity against mammalian cells using three malignant cell lines: human liver carcinoma (HepG2), human colon adenocarcinoma grade II (HT29) and human breast adenocarcinoma (MCF7) cell lines (Table 5).\n(§8) After drawing whole blood into anticoagulant containing tubes (BD Vacutainer®, K2 EDTA 3.6 mg, Ref 368841, Lot 1248213), its fractionation was executed with one volume whole blood added to nine volumes sterile 0.9% NaCl and centrifugation (800g, 10 min, 4 °C). Subsequently, the lowest fraction containing all hRBCs was washed twice with nine volumes 1 × PBS (PAA), triturating carefully. The concentrated hRBCs were re-suspended with 1 × PBS to an erythrocyte concentration of 5% (v/v). Wells of a 96-well plate were filled with 100 µL of the appropriate peptide solutions: The peptides were dissolved in 1 × PBS and DMSO (5% for (RW)3 and 50% for RcCO-W(RW)2). These were mixed with 100 µL of the 5% hRBCs solution and incubated under agitation on a flat shaker (170 rpm, 30 min, 37 °C). After sedimenting all probes under centrifugation (800g, 10 min, 4 °C), all supernatants were transferred into a clean 96-well plate. The release of hemoglobin was monitored by measuring the absorbance of the supernatant at 550 nm using an automated 96-well plate reader. Controls for 0 and 100% hemolysis consisted of hRBC 5% (v/v) suspended in PBS containing DMSO in appropriate concentrations and 1% Triton X-100, respectively. Toxicity on human cancer cell lines was determined according to previously described procedures."}, "[7]": {"tested_on": "human colon adenocarcinoma grade II (HT29)", "format": "cell-based", "procedure": "as §7, §8"}, "[8]": {"tested_on": "human liver carcinoma (HepG2)", "format": "cell-based", "procedure": "as §7, §8"}, "[9]": {"tested_on": "three human cancer cell lines (HepG2, HT29, MCF7)", "method": "Toxicity on human cancer cell lines was determined according to previously described procedures [67–68]."}, "[10]": {"tested_on": "human red blood cells (hRBCs)", "conditions": "cited from earlier work"}, "[11]": {"tested_on": "Staphylococcus aureus ATCC 43300 (MRSA)", "test": "microbe, parasite or virus in culture", "procedure": "as §1, §2, §3"}, "[12]": {"tested_on": "Pseudomonas aeruginosa DSM 50071", "test": "MIC, microtiter plate assay (CLSI)", "format": "cell-based", "conditions": "for Minimum inhibitory concentration, P. aeruginosa: title: in the cell culture medium, CLSI guidelines, µM calculated with one TFA counterion per basic residue", "procedure": "as §1, §2, §3"}, "Hemolytic activity": {"test": "Hemolytic activity", "format": "cell-based, human", "conditions": "human, at 263 µg/mL (192 µM); 50% DMSO/PBS; relative to Triton X-100; read-out: hemolysis of hRBCs", "procedure": "as §5, §6"}, "[13]": {"conditions": "title: in the cell culture medium, CLSI guidelines, µM calculated with one TFA counterion per basic residue"}, "[14]": {"conditions": "value outside brackets, title: in the cell culture medium"}}, "note": "Read-outs that look alike come from different tables or passages of the source. Square brackets hold non-standard residues; d marks the D form. Peptide text beside a SMILES is read from it. * marks the point of attachment. X1 = O=C([C]12[CH]3[CH]4[CH]5[CH]1[Ru]45321678[CH]2[CH]1[CH]6[CH]7[CH]28)*"}
{"compound": "N=C(N)NCCCC(N)C(=O)NC(Cc1c[nH]c2ccccc12)C(=O)NC(CCCNC(=N)N)C(=O)NC(Cc1c[nH]c2ccccc12)C(=O)NC(CCCNC(=N)N)C(=O)NC(Cc1c[nH]c2ccccc12)C(N)=O", "note": "(stereo not drawn) [(RW)3] (H-RWRWRW-NH2; configuration not given here)", "values": [{"measurement": "Minimum inhibitory concentration, E. coli", "setting": "[1]; DSM 30083, 16 h", "value": 21, "unit": "µM"}, {"measurement": "Minimum inhibitory concentration, A. baumannii", "setting": "[2]; DSM 30007, 16 h", "value": 21, "unit": "µM"}, {"measurement": "Minimum inhibitory concentration, B. subtilis", "setting": "[3]", "value": 1.3, "unit": "µM"}, {"measurement": "Minimum inhibitory concentration, S. aureus", "setting": "[4]; DSM 20231, 16 h", "value": "11 (11) µM"}, {"measurement": "MIC, M. luteus", "setting": "M. luteus", "value": "0.6 ± 0.0", "unit": "µg/mL"}, {"measurement": "MIC, S. aureus (133)", "setting": "S. aureus (133)", "value": "2.1 ± 0.7", "unit": "µg/mL"}, {"measurement": "concentration up to which no significant destruction of erythrocytes", "setting": "[5]", "value": "up to 500 µg/mL"}, {"measurement": "IC50", "setting": "[6]", "value": "159 ± 7", "unit": "µM"}, {"measurement": "IC50", "setting": "[7]", "value": "132 ± 12", "unit": "µM"}, {"measurement": "IC50", "setting": "[8]", "value": "143 ± 21", "unit": "µM"}, {"measurement": "IC50", "setting": "[9]", "value": "~140", "unit": "µM"}, {"measurement": "concentration of 50% hemolysis", "setting": "[10]", "value": "~ 250 µM"}]}
{"compound": "CC(C)C[C@@H]1NC(=O)[C@H](CCCCN)NC(=O)[C@H](C(C)C)NC(=O)[C@@H]2CCCN2C(=O)[C@@H](Cc2ccc(O)cc2)NC(=O)[C@H](CC(C)C)NC(=O)[C@H](CCCCN)NC(=O)[C@H](C(C)C)NC(=O)[C@@H]2CCCN2C(=O)[C@@H](Cc2ccc(O)cc2)NC1=O", "note": "[GS(K2Y2), cyclo([Pro-Val-Lys-Leu-D-Tyr]2), reference compound] (cyclo(PVKL[dY]PVKL[dY]))", "values": [{"measurement": "Minimum inhibitory concentration, B. subtilis", "setting": "[3]", "value": 1.4, "unit": "µM"}, {"measurement": "Minimum inhibitory concentration, S. aureus (MRSA)", "setting": "[11]; ATCC 43300, 16 h", "value": 2.8, "unit": "µM"}, {"measurement": "Minimum inhibitory concentration, S. aureus", "setting": "[4]; DSM 20231, 16 h", "value": 1.4, "unit": "µM"}, {"measurement": "Minimum inhibitory concentration, P. aeruginosa", "setting": "[12]", "value": "n.a. (‘n.a.’ means ‘not active’ (MIC > 100 μM))"}]}
{"compound": "N=C(N)NCCC[C@H](NC(=O)[C@H](Cc1c[nH]c2ccccc12)NC(=O)[C@H](CCCNC(=N)N)NC(=O)[C@H](Cc1c[nH]c2ccccc12)NC(=O)[C]12[CH]3[CH]4[CH]5[CH]1[Ru]45321678[CH]2[CH]1[CH]6[CH]7[CH]28)C(=O)N[C@@H](Cc1c[nH]c2ccccc12)C(N)=O", "note": "(stereo partly drawn) [RcCO-W(RW)2] (X1-WRWRW-NH2)", "values": [{"measurement": "hemolysis at 30 min, 192 µM", "setting": "Hemolytic activity", "value": 64, "unit": "%"}]}
{"compound": "CN[C@H](CC(C)C)C(=O)N[C@H]1C(=O)N[C@@H](CC(N)=O)C(=O)N[C@H]2C(=O)N[C@H]3C(=O)N[C@H](C(=O)N[C@H](C(=O)O)c4cc(O)cc(O)c4-c4cc3ccc4O)[C@H](O)c3ccc(c(Cl)c3)Oc3cc2cc(c3O[C@@H]2O[C@H](CO)[C@@H](O)[C@H](O)[C@H]2O[C@H]2C[C@](C)(N)[C@H](O)[C@H](C)O2)Oc2ccc(cc2Cl)[C@H]1O", "note": "[vancomycin, reference compound]", "values": [{"measurement": "MIC", "setting": "[2]; Acinetobacter baumannii, DSM30007, read-out: Minimum inhibitory concentration, A. baumannii", "value": 38, "unit": "µM"}, {"measurement": "MIC", "setting": "[3]; Bacillus subtilis, DSM402, read-out: Minimum inhibitory concentration, B. subtilis", "value": 0.3, "unit": "µM"}, {"measurement": "MIC", "setting": "[11]; Staphylococcus aureus, ATCC43300|MRSA, read-out: Minimum inhibitory concentration, S. aureus (MRSA)", "value": 0.6, "unit": "µM"}, {"measurement": "MIC", "setting": "[4]; Staphylococcus aureus, DSM20231, read-out: Minimum inhibitory concentration, S. aureus", "value": 0.3, "unit": "µM"}, {"measurement": "MIC", "setting": "[12]; Pseudomonas aeruginosa, DSM50071, read-out: Minimum inhibitory concentration, P. aeruginosa", "value": "> 100", "unit": "µM"}]}
{"compound": "Ac-RWRWRW-NH2 [Ac(RW)3, Ac-RWRWRW-NH2]", "values": [{"measurement": "Minimum inhibitory concentration, E. coli", "setting": "[1]; DSM 30083, 16 h", "value": 45, "unit": "µM"}, {"measurement": "Minimum inhibitory concentration, B. subtilis", "setting": "[3]", "value": 45, "unit": "µM"}]}
{"compound": "FcCO-RWRWRW-NH2 [FcCO-(RW)3]", "values": [{"measurement": "Minimum inhibitory concentration, E. coli", "setting": "[1]; [13]", "value": 20, "unit": "µM"}]}
{"compound": "H-KWKWKW-NH2 [(KW)3]", "values": [{"measurement": "Minimum inhibitory concentration, E. coli", "setting": "[1]; [13]", "value": "n.a. (‘n.a.’ means ‘not active’ (MIC > 100 μM))"}, {"measurement": "Minimum inhibitory concentration, A. baumannii", "setting": "[2]; [13]", "value": "n.a. (‘n.a.’ means ‘not active’ (MIC > 100 μM))"}, {"measurement": "Minimum inhibitory concentration, S. aureus (MRSA)", "setting": "[11]; [14]", "value": "n.a. (‘n.a.’ means ‘not active’ (MIC > 100 μM))"}, {"measurement": "Minimum inhibitory concentration, S. aureus", "setting": "[4]; [14]", "value": "n.a. (‘n.a.’ means ‘not active’ (MIC > 100 μM))"}, {"measurement": "Minimum inhibitory concentration, P. aeruginosa", "setting": "[12]", "value": "n.a. (‘n.a.’ means ‘not active’ (MIC > 100 μM))"}]}
